Measurements as given in US20250230193A1, “CYCLIC COMPOUND HAVING SELECTIVE KRAS INHIBITORY EFFECT ON HRAS AND NRAS” (CHUGAI SEIYAKU KABUSHIKI KAISHA, priority 2022, published 2025).
*1 amine or outer side, *2 acyl side, *3 side chain or, on linkers, in order; H or OH if unused. Where a SMILES comes first, the peptide text is derived from it. Bridges are numbered along the chain shown (N, C = ends). [ ]: non-standard residue; d: D form. The star is where a group is joined. hPhe(3,5-F2-4-CF3) = N[C@@H](CCc1cc(F)c(C(F)(F)F)c(F)c1)C(=O)O; hPhe(3-Cl-4-CF3) = N[C@@H](CCc1ccc(C(F)(F)F)c(Cl)c1)C(=O)O; NPrPhe(4-CF3) = CCCN[C@@H](Cc1ccc(C(F)(F)F)cc1)C(=O)O; NEtPhe(4-Me) = CCN[C@@H](Cc1ccc(C)cc1)C(=O)O; NMeGly(cPent) = CN[C@H](C(=O)O)C1CCCC1; X13 = CCC[C@](C)(N[*:1])C(=O)[*:2]; NMeD = CN[C@@H](CC(=O)O)C(=O)O; NMeL = CN[C@@H](CC(C)C)C(=O)O; NMeV = CN[C@H](C(=O)O)C(C)C; Morpholide = C1CN(*)CCO1; NMeA = CN[C@@H](C)C(=O)O; Ac5c = NC1(C(=O)O)CCCC1; Aze = O=C(O)[C@@H]1CCN1; Sar = CNCC(=O)O

Experiments:
[1] = biological target: GDP-bound HRAS wild-type protein (Homo sapiens, UniProt P01112); test: Binding to HRAS by surface plasmon resonance (SPR), Single Cycle Kinetics
Chain of GDP-bound HRAS wild-type protein (P01112 whole entry): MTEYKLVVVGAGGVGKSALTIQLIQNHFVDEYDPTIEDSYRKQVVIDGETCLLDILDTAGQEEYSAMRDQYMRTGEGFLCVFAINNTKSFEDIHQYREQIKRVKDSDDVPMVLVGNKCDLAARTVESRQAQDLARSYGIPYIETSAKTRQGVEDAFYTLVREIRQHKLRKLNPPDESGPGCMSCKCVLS

[2] = biological target: GDP-bound NRAS wild-type protein (Homo sapiens, UniProt P01111); test: Binding to NRAS by surface plasmon resonance (SPR), Single Cycle Kinetics
Chain of GDP-bound NRAS wild-type protein (P01111 whole entry): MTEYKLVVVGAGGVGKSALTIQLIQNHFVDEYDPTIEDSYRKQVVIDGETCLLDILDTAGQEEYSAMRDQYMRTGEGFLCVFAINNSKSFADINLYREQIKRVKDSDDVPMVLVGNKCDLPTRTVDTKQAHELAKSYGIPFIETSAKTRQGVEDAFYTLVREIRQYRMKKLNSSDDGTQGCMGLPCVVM

[3] = GDP-bound HRAS wild-type vs GDP-bound KRAS wild-type, SPR
[4] = GDP-bound NRAS wild-type vs GDP-bound KRAS wild-type, SPR

CC[C@H](C)[C@@H]1NC(=O)[C@H](CC)N(C)C(=O)C[C@@H](C(=O)N(C)C)N(C)C(=O)[C@H](C2CCCC2)N(C)C(=O)C2(CCC2)NC(=O)[C@@H]2C[C@H](N3CCC(F)(F)CC3)CN2C(=O)[C@H](CCc2cc(F)c(C(F)(F)F)c(F)c2)NC(=O)CN(C)C(=O)[C@H](Cc2ccc(C(F)(F)F)cc2)N2CCCCC[C@@H](C2=O)N(C)C(=O)CN(C)C1=O [PP0731]
HRAS/KRAS (ratio of KD value with respect to GDP-bound HRAS wild-type protein to KD value with respect to KRAS) ([1]; KD ratio HRAS/KRAS, SPR): B (a compound having 3 or more and less than 10 is denoted as B)
NRAS/KRAS (ratio of KD value with respect to GDP-bound NRAS wild-type protein to KD value with respect to KRAS) ([2]; KD ratio NRAS/KRAS, SPR): B (a compound having 3 or more and less than 10 is denoted as B)

CCOC[C@H]1C(=O)N[C@@H]([C@@H](C)CC)C(=O)N2CCC[C@H]2C(=O)N(C)[C@H]2C/C=C\CCN(C2=O)[C@@H](Cc2ccc(C(F)(F)F)cc2)C(=O)N(C)CC(=O)N[C@@H](CCc2ccc(C(F)(F)F)c(OC)c2)C(=O)N2C[C@@H](C)C[C@H]2C(=O)N(C)C2(CCC2)C(=O)N(C)[C@@H](C2CCCC2)C(=O)N(C)[C@H](C(=O)N(C)C)CC(=O)N1C [PP2363]
HRAS/KRAS (ratio of KD value with respect to HRAS to KD value with respect to KRAS) ([1]; SPR, GDP-bound HRAS wild-type vs GDP-bound KRAS wild-type): B (a compound having 3 or more and less than 10 is denoted as B)
NRAS/KRAS (ratio of KD value with respect to NRAS to KD value with respect to KRAS) ([2]; SPR, GDP-bound NRAS wild-type vs GDP-bound KRAS wild-type): A (a compound having 10 or more and less than 20 is denoted as A)

CCCOC[C@H]1C(=O)N[C@@H]([C@@H](C)CC)C(=O)N(C)CC(=O)N(C)[C@H]2C/C=C\CCN(C2=O)[C@@H](Cc2ccc(C(F)(F)F)cc2)C(=O)N(C)CC(=O)N[C@@H](CCc2cc(F)c(C(F)(F)F)c(F)c2)C(=O)N2C[C@@H](C)C[C@H]2C(=O)NC2(CCC2)C(=O)N(C)[C@@H](C2CCCC2)C(=O)N(C)[C@H](C(=O)N(C)CCC)CC(=O)N1C [PP2008]
HRAS/KRAS (ratio of KD value for HRAS to KD value for KRAS) [1, 3]: A (a compound having 10 or more and less than 20 is denoted as A)
NRAS/KRAS (ratio of KD value for NRAS to KD value for KRAS) [2, 4]: A (a compound having 10 or more and less than 20 is denoted as A)

CC[C@H](C)[C@@H]1NC(=O)[C@H](CC)N(C)C(=O)C[C@@H](C(=O)N(C)CC)N(C)C(=O)[C@H](C2CCCC2)N(C)C(=O)C2(CC(C)(C)C2)NC(=O)[C@@H]2C[C@@H](C)CN2C(=O)[C@H](CCc2ccc(C(F)(F)F)c(Cl)c2)NC(=O)CN(C)C(=O)[C@H](Cc2ccc(C)cc2)N2CC/C=C\C[C@@H](C2=O)N(C)C(=O)CN(C)C1=O [PP1876]
HRAS/KRAS (ratio of KD value for HRAS to KD value for KRAS) [1, 3]: A (a compound having 10 or more and less than 20 is denoted as A)
NRAS/KRAS (ratio of KD value for NRAS to KD value for KRAS) [2, 4]: A (a compound having 10 or more and less than 20 is denoted as A)

CC[C@H](C)[C@@H]1NC(=O)[C@H](CC(C)C)N(C)C(=O)C[C@@H](C(=O)N2CCOCC2)N(C)C(=O)[C@H](C(C)C)N(C)C(=O)C2(CCCC2)NC(=O)[C@@H]2CCCN2C(=O)[C@H](CCc2ccc(C(F)(F)F)c(Cl)c2)NC(=O)CN(C)C(=O)[C@H](Cc2ccc(C)cc2)N(CC)C(=O)[C@@H]2CCN2C(=O)[C@H](C)N(C)C1=O [PP0015] ([NMeL]I[NMeA][Aze][NEtPhe(4-Me)][Sar][hPhe(3-Cl-4-CF3)]P[Ac5c][NMeV][NMeD]-Morpholide; lactam N-11)
HRAS/KRAS (ratio of KD for GDP-bound HRAS wild-type to KD for KRAS) ([1]; KD ratio HRAS/KRAS, SPR): C (A compound having a KD ratio of 0.1 or more and less than 3 is denoted as C)
NRAS/KRAS (ratio of KD for GDP-bound NRAS wild-type to KD for KRAS) ([2]; KD ratio NRAS/KRAS, SPR): C (A compound having a KD ratio of 0.1 or more and less than 3 is denoted as C)

CC[C@H](C)[C@@H]1NC(=O)[C@H](COC)N(C)C(=O)C[C@@H](C(=O)N(C)C)N(C)C(=O)[C@H](C2CCCC2)N(C)C(=O)C2(CC(C)(C)C2)NC(=O)[C@@H]2C[C@@H](OC3CCCC3)CN2C(=O)[C@H](CCc2cc(F)c(C(F)(F)F)c(F)c2)NC(=O)CN(C)C(=O)[C@H](CC2CCC(F)(F)CC2)N2CC/C=C\C[C@@H](C2=O)N(C)C(=O)CN(C2CC2)C1=O [PP2634]
HRAS/KRAS (ratio of KD value with respect to GDP-bound HRAS wild-type protein to KD value with respect to KRAS) ([1]; KD ratio HRAS/KRAS, class symbols): A (a compound having 10 or more and less than 20 is denoted as A)
NRAS/KRAS (ratio of KD value with respect to GDP-bound NRAS wild-type protein to KD value with respect to KRAS) ([2]; KD ratio NRAS/KRAS, class symbols): A (a compound having 10 or more and less than 20 is denoted as A)

CCCN1C(=O)[C@@H]2CCN2C(=O)CN(C)C(=O)[C@H]([C@@H](C)CC)NC(=O)[C@H](CC(C)C)N(C)C(=O)C[C@@H](C(=O)N2CCOCC2)N(C)C(=O)[C@H](C2CCCC2)N(C)C(=O)[C@](C)(CCC)NC(=O)[C@@H]2CCCN2C(=O)[C@H](CCc2cc(F)c(C(F)(F)F)c(F)c2)NC(=O)CN(C)C(=O)[C@@H]1Cc1ccc(C(F)(F)F)cc1 [PP0794] ([NMeL]I[Sar][Aze][NPrPhe(4-CF3)][Sar][hPhe(3,5-F2-4-CF3)]P[X13][NMeGly(cPent)][NMeD]-Morpholide; lactam N-11)
HRAS/KRAS (ratio of KD value with respect to GDP-bound HRAS wild-type protein to KD value with respect to KRAS) ([1]; KD ratio HRAS/KRAS, SPR): B (a compound having 3 or more and less than 10 is denoted as B)
NRAS/KRAS (ratio of KD value with respect to GDP-bound NRAS wild-type protein to KD value with respect to KRAS) ([2]; KD ratio NRAS/KRAS, SPR): C (A compound having a KD ratio of 0.1 or more and less than 3 is denoted as C)
